Tests used:
human kinase Mps-1 = human kinase Mps-1 (Homo sapiens (Human), UniProt P33981); assay: Mps-1 kinase assay (TR-FRET); type: biochemical; conditions: 10 μM ATP; read-out: Mps1 avg (IC50 [mol/l])
In short: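 GST-tagged full-length human Mps-1 (~0.5 nM) preincubated 15 min with compound, then reacted 60 min at 22 °C with 10 μM ATP and 1 μM biotinylated peptide in Hepes pH 7.7 buffer. Phosphoproduct detected by TR-FRET (Eu anti-phospho-Ser/Thr, SA-XLent); 665/620 ratio normalised to no-inhibitor and no-enzyme controls.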

[1] = tested on: spindle assembly checkpoint; assay: SAC-Formation - Paclitaxel-Induced Assay; type: cell-based; conditions: Homo sapiens; HeLa cells, paclitaxel 0.05 μM, 24 h, phosphorylated histone H3 on serine 10
In short: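 HeLa cells were plated overnight, then given paclitaxel (0.05 μM final) plus compound (0.005-20 μM, 0.5% DMSO) for 24 h at 37° C. Fixed cells were stained for phospho-histone H3 Ser10 and with Hoechst, then imaged to give mitotic index. A fall in mitotic cells marks SAC breakthrough, and values were fit with a four-parameter Hill equation.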

human kinase Mps-1, sequence (P33981 whole entry): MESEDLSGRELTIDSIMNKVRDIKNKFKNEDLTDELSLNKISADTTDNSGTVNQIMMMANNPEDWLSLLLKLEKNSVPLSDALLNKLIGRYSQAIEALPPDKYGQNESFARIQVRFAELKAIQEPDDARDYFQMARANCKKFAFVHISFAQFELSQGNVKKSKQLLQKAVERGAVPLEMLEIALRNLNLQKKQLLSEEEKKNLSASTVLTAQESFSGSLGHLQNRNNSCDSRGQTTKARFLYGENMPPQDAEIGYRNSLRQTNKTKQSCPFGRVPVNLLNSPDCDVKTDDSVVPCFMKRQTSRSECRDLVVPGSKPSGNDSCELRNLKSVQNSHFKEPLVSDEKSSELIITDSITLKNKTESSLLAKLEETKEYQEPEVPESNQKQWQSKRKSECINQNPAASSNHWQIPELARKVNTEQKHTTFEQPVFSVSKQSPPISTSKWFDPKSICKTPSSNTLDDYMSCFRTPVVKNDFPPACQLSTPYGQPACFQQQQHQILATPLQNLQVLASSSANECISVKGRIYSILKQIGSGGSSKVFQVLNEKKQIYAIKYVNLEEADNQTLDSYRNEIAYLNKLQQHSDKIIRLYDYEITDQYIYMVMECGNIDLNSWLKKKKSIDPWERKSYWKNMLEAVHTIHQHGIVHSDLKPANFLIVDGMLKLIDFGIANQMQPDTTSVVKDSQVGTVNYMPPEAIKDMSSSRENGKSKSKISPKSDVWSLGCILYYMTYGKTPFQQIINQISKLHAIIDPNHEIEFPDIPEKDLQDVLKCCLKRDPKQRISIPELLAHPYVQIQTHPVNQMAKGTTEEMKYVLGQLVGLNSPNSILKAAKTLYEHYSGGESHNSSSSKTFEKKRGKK

Row | Compound | IC50 (human kinase Mps-1) [µM] | IC50 [1] [µM]
1 | CCc1ccccc1NC(=O)c1c(C)nsc1Nc1cnccn1 [Example 1, N-(2-Ethylphenyl)-3-methyl-5-(pyrazin-2-ylamino)-1,2-thiazole-4-carboxamide] | > 20 | 4.9
2 | COc1ccc(NC(=O)c2c(C)nsc2Nc2nccnc2C#N)cn1 [Example 24, 5-[(3-Cyanopyrazin-2-yl)amino]-N-(6-methoxypyridin-3-yl)-3-methyl-1,2-thiazole-4-carboxamide] | > 20 | 8.5
3 | CCc1ccccc1NC(=O)c1c(C)nsc1Nc1ncnc2ccccc12 [Example 10, N-(2-Ethylphenyl)-3-methyl-5-(quinazolin-4-ylamino)-1,2-thiazole-4-carboxamide] | > 20 | 11
4 | COc1ccc(NC(=O)c2c(C)nsc2Nc2cnc3ccc(F)cc3n2)cn1 [Example 44, 5-[(7-Fluoroquinoxalin-2-yl)amino]-N-(6-methoxypyridin-3-yl)-3-methyl-1,2-thiazole-4-carboxamide] | > 20 | 0.49
5 | Cc1nsc(Nc2cc(C#N)ccn2)c1C(=O)Nc1ccc(OC2CCCCC2)nc1 [Example 118, 5-[(4-Cyanopyridin-2-yl)amino]-N-[6-(cyclohexyloxy)pyridin-3-yl]-3-methyl-1,2-thiazole-4-carboxamide] | > 20 | 0.056
6 | Cc1nsc(Nc2cc(C#N)ccn2)c1C(=O)Nc1ccc(Cl)c(F)c1 [Example 54, N-(4-Chloro-3-fluorophenyl)-5-[(4-cyanopyridin-2-yl)amino]-3-methyl-1,2-thiazole-4-carboxamide] | > 20 | 0.03
7 | COc1ccc(NC(=O)c2c(C)nsc2Nc2cnc3cc(C(F)(F)F)ccc3n2)cn1 [Example 45, N-(6-Methoxypyridin-3-yl)-3-methyl-5-{[6-(trifluoromethyl)quinoxalin-2-yl]amino}-1,2-thiazole-4-carboxamide] | > 20 | 0.14
8 | COc1ccc(Oc2ccc(NC(=O)c3c(C)nsc3Nc3cnc4ccccc4n3)cn2)cc1 [Example 116, N-[6-(4-Methoxyphenoxy)pyridin-3-yl]-3-methyl-5-(quinoxaline-2-ylamino)-1,2-thiazole-4-carboxamide] | 3.6 | 4.8
9 | CCc1ccccc1NC(=O)c1c(C)nsc1Nc1ncnc2ccsc12 [Example 13, N-(2-Ethylphenyl)-3-methyl-5-(thieno[3,2-d]pyrimidin-4-ylamino)-1,2-thiazole-4-carboxamide] | > 20 | 2.1
10 | CCc1ccccc1NC(=O)c1c(C)nsc1Nc1cc(C(F)(F)F)ccn1 [Example 18, N-(2-Ethylphenyl)-3-methyl-5-{[4-(trifluoromethyl)pyridin-2-yl]amino}-1,2-thiazole-4-carboxamide] | > 20 | 2
11 | COC(=O)c1cncc(Nc2snc(C)c2C(=O)Nc2ccc(OC)nc2)n1 [Example 101, Methyl 6-({4-[(6-methoxypyridin-3-yl)carbamoyl]-3-methyl-1,2-thiazol-5-yl}amino)pyrazine-2-carboxylate] | > 20 | 1.5
12 | CCOC(=O)c1cnc(Nc2snc(C)c2C(=O)Nc2ccc(OC)nc2)s1 [Example 29, Ethyl 2-({4-[(6-methoxypyridin-3-yl)carbamoyl]-3-methyl-1,2-thiazol-5-yl}amino)-1,3-thiazole-5-carboxylate] | > 20 | 0.7
13 | CCc1ccccc1NC(=O)c1c(C)nsc1Nc1cnc2ccccc2n1 [Example 19, N-(2-Ethylphenyl)-3-methyl-5-(quinoxalin-2-ylamino)-1,2-thiazole-4-carboxamide] | > 20 | 0.14
14 | Cc1nsc(Nc2cnc3ccccc3n2)c1C(=O)Nc1ccc(Oc2ccc(F)cc2F)nc1 [Example 113, N-[6-(2,4-Difluorophenoxy)pyridin-3-yl]-3-methyl-5-(quinoxalin-2-ylamino)-1,2-thiazole-4-carboxamide] | > 20 | 1
15 | COc1ccc(NC(=O)c2c(C)nsc2Nc2ccc(C#N)cn2)cn1 [Example 39, 5-[(5-Cyanopyridin-2-yl)amino]-N-(6-methoxypyridin-3-yl)-3-methyl-1,2-thiazole-4-carboxamide] | > 20 | 1.3

Second part, the compound after the results:

Row | IC50 (human kinase Mps-1) [µM] | IC50 [1] [µM] | Compound
16 | > 20 | 0.14 | COc1ccc(NC(=O)c2c(C)nsc2Nc2nc3c(C(F)(F)F)cccc3s2)cn1 [Example 48, N-(6-Methoxypyridin-3-yl)-3-methyl-5-{[4-(trifluoromethyl)-1,3-benzothiazol-2-yl]-amino}-1,2-thiazole-4-carboxamide]
17 | > 20 | 8.1 | COC(=O)c1cnc(Nc2snc(C)c2C(=O)Nc2ccc(F)c(F)c2)o1 [Example 97, Methyl 2-({4-[(3,4-difluoro-phenyl)carbamoyl]-3-methyl-1,2-thiazol-5-yl}amino)-1,3-oxazole-5-carboxylate]
18 | > 20 | 0.82 | Cc1nsc(Nc2nc3c(C(F)(F)F)ccnc3s2)c1C(=O)Nc1ccc(Cl)c(F)c1 [Example 103, N-(4-Chloro-3-fluorophenyl)-3-methyl-5-{[7-(trifluoromethyl)[1,3]thiazolo[5,4-b]pyridin-2-yl]amino}-1,2-thiazole-4-carboxamide]
19 | 18 | 7.9 | CCOC(=O)c1coc(Nc2snc(C)c2C(=O)Nc2ccc(F)c(F)c2)n1 [Example 98, Ethyl 2-({4-[(3,4-difluoro-phenyl)carbamoyl]-3-methyl-1,2-thiazol-5-yl}amino)-1,3-oxazole-4-carboxylate]
20 | > 20 | 0.3 | CCNC(=O)c1csc(Nc2snc(C)c2C(=O)Nc2ccc(F)c(F)c2)n1 [Example 99, N-(3,4-Difluorophenyl)-5-{[4-(ethylcarbamoyl)-1,3-thiazol-2-yl]amino}-3-methyl-1,2-thiazole-4-carboxamide]
21 | > 20 | 0.96 | Cc1nsc(Nc2ncc(C(=O)N(C)C)s2)c1C(=O)Nc1ccc(F)c(F)c1 [Example 49, N-(3,4-Difluorophenyl)-5-{[5-(dimethylcarbamoyl)-1,3-thiazol-2-yl]amino}-3-methyl-1,2-thiazole-4-carboxamide]
22 | > 20 | 0.59 | Cc1nsc(Nc2nc3c(C(F)(F)F)cccc3s2)c1C(=O)Nc1ccc(Cl)c(F)c1 [Example 53, N-(4-Chloro-3-fluorophenyl)-3-methyl-5-{[4-(trifluoromethyl)-1,3-benzothiazol-2-yl]amino}-1,2-thiazole-4-carboxamide]
23 | > 20 | 0.11 | COc1ccc(NC(=O)c2c(C)nsc2Nc2cnc3c(F)c(F)ccc3n2)cn1 [Example 43, 5-[(5,6-Difluoroquinoxalin-2-yl)amino]-N-(6-methoxypyridin-3-yl)-3-methyl-1,2-thiazole-4-carboxamide]
24 | > 20 | 0.063 | COc1ccc(NC(=O)c2c(C)nsc2Nc2nc3c(C(F)(F)F)cccc3s2)cc1F [Example 47, N-(3-Fluoro-4-methoxyphenyl)-3-methyl-5-{[4-(trifluoromethyl)-1,3-benzothiazol-2-yl]amino}-1,2-thiazole-4-carboxamide]
25 | > 20 | 0.035 | Cc1nsc(Nc2nc3c(C(F)(F)F)cccc3s2)c1C(=O)Nc1ccc(F)c(F)c1 [Example 51, N-(3,4-Difluorophenyl)-3-methyl-5-{[4-(trifluoromethyl)-1,3-benzothiazol-2-yl]-amino}-1,2-thiazole-4-carboxamide]

Reference: patent US9682995B2, “Amino-substituted isothiazoles” (BAYER PHARMA AKTIENGESELLSCHAFT, priority 2013, dated 2017)
